Like-named read-outs stand apart in the source and are kept apart here.
Experiments:
Format in all cases: cell-based
human TLR9 = molecular target: T1, human TLR9 (Homo sapiens, UniProt Q9NR96); assay: TLR9 inhibition reporter assay (HEK-Blue cells, secreted embryonic alkaline phosphatase reporter); conditions: HEK-Blue cells overexpressing human TLR9, stimulated with ODN2006 5 nM
T1 construct: host or cells: HEK-Blue cells (HEK293-derived reporter line)
T1 sequence (Q9NR96 26-1032): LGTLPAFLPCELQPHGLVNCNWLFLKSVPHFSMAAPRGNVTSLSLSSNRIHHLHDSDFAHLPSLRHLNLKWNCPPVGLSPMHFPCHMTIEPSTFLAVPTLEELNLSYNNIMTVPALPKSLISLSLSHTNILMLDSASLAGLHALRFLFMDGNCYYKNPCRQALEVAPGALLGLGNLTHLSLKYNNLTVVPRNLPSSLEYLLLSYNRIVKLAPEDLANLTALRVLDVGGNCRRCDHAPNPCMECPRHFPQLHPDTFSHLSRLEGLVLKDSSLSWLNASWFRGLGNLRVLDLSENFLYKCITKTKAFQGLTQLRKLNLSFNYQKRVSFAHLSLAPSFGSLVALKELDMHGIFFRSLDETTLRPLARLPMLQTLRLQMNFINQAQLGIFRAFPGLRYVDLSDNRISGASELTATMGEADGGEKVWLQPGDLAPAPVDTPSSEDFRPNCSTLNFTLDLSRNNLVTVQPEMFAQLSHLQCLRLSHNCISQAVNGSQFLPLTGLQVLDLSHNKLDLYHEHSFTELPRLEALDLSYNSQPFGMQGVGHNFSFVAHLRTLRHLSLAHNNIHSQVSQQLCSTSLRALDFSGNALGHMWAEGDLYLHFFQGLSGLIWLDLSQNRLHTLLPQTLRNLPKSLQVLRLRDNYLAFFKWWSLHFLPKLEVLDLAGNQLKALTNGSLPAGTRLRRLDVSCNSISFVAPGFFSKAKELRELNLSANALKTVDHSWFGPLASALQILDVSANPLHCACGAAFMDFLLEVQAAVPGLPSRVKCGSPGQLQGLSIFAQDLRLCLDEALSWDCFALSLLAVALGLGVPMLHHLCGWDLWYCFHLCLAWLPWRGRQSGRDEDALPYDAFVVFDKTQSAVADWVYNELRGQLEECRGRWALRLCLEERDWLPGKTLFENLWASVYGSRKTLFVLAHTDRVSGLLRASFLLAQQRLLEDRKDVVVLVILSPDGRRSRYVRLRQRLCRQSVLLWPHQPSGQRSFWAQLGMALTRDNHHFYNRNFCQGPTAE
Outline: (§1)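 HEK-Blue cells overexpressing the respective receptor, with an NF-κB/AP-1-driven SEAP reporter, were pre-treated with compound (0.05 nM–50 μM) for 30 min at room temperature. Stimulation used gardiquimod 7.5 μM (TLR7), R848 15.9 μM (TLR8) or ODN2006 5 nM (TLR9); SEAP was read after 22 h at 37 °C as percent inhibition.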

human TLR7 = molecular target: T2, human TLR7 (Homo sapiens, UniProt Q9NYK1); assay: TLR7 inhibition reporter assay (HEK-Blue cells, secreted embryonic alkaline phosphatase reporter); conditions: HEK-Blue cells overexpressing human TLR7, stimulated with gardiquimod 7.5 μM; read-out: TLR 7 IC50
T2 construct: host or cells: HEK-Blue cells (HEK293-derived reporter line)
T2 sequence (Q9NYK1 27-1049): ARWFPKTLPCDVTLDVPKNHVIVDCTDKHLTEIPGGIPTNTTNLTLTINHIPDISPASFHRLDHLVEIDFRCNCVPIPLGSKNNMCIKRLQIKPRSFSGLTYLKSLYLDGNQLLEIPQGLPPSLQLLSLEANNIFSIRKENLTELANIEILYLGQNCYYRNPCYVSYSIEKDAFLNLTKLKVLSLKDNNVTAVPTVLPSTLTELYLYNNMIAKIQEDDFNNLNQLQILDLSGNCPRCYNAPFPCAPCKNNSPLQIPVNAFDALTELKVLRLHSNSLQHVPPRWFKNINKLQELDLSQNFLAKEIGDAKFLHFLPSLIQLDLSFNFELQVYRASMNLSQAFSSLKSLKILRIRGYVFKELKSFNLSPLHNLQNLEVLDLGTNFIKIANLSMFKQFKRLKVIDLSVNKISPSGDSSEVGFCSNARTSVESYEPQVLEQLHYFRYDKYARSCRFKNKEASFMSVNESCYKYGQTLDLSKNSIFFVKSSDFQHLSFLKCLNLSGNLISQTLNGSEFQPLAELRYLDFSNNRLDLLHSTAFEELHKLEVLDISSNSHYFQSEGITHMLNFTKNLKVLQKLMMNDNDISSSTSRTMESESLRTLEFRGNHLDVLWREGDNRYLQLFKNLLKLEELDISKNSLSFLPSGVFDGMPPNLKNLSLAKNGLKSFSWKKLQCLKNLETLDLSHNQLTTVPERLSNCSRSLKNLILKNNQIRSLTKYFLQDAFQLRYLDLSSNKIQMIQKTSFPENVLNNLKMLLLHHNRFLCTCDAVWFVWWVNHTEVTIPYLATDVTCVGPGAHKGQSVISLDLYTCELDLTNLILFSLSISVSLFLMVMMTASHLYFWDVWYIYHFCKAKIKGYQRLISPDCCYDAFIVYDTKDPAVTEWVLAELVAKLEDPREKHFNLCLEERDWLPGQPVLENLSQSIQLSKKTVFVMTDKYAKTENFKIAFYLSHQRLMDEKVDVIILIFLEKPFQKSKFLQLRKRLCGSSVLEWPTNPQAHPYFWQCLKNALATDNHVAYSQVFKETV
Outline: as §1

human TLR8 = molecular target: T3, human TLR8 (Homo sapiens, UniProt Q9NR97); assay: TLR8 inhibition reporter assay (HEK-Blue cells, secreted embryonic alkaline phosphatase reporter); conditions: HEK-Blue cells overexpressing human TLR8, stimulated with R848 15.9 μM; read-out: TLR 8 IC50
T3 construct: host or cells: HEK-Blue cells (HEK293-derived reporter line)
T3 sequence (Q9NR97 27-1041): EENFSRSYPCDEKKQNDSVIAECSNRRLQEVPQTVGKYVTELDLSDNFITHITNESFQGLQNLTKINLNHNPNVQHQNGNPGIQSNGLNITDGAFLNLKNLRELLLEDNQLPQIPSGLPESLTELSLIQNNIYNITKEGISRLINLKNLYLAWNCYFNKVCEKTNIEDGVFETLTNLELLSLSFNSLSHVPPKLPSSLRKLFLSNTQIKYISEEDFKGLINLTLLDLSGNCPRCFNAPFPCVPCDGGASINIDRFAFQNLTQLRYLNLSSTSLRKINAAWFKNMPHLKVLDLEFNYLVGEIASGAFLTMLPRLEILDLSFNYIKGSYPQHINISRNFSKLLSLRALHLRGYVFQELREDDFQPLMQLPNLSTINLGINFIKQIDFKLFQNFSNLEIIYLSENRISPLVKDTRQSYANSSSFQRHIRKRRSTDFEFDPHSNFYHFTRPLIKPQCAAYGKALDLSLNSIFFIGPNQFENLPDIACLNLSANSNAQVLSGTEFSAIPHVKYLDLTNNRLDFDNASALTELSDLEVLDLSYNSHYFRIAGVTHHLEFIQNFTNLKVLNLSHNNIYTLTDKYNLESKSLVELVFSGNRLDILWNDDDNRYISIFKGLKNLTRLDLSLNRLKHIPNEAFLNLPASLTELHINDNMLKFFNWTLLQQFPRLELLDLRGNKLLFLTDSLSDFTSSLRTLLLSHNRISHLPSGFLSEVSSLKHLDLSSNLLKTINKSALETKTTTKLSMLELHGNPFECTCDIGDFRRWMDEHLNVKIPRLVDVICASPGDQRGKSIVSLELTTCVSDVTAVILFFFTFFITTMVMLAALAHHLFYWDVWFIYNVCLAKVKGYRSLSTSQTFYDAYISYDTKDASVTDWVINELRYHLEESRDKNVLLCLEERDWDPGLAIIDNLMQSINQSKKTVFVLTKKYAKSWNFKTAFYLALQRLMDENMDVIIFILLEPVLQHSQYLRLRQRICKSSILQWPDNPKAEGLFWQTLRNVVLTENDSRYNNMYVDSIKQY
Outline: as §1

[1] = 22 hour incubation, reporter readout

SMILES | IC50 (human TLR9; [1]) [nM] | IC50 (human TLR9; read-out: TLR 9 IC50) [nM] | IC50 (human TLR7) [nM] | IC50 (human TLR8) [nM]
COc1ccc(-c2nc3c(C)cc(C4CCN(C5CCN(C6CC6)CC5)CC4)cc3n2C)cc1OC [Example 46, 6-(1′-cyclopropyl-[1,4′-bipiperidin]-4-yl)-2-(3,4-dimethoxyphenyl)-1,4-dimethyl-1H-benzo[d]imidazole tris(2,2,2-trifluoroacetate)] | 170 | 610 | 18000 | > 50000
COc1ccc(-c2nc3c(C)cc(C4CCN(C5CC6(C5)CN(C5CCC5)C6)CC4)cc3n2C)cc1OC [Example 49, 6-(1-(2-cyclobutyl-2-azaspiro[3.3]heptan-6-yl)piperidin-4-yl)-2-(3,4-dimethoxyphenyl)-1,4-dimethyl-1H-benzo[d]imidazole] | 65 | 65 | 5800 | > 50000
COc1ccc(-c2nc3c(C)cc(C4CC5CCC(C4)N5C4CCN(C5CC5)CC4)cc3n2C)cc1OC (stereo not drawn) [Example 51, 6-(8-(1-cyclopropylpiperidin-4-yl)-8-azabicyclo[3.2.1]octan-3-yl)-2-(3,4-dimethoxyphenyl)-1,4-dimethyl-1H-benzo[d]imidazole] | 130 | 130 | 20000 | > 50000
Cc1cc(C2CCN(C3CCN(CC(C)C)CC3)CC2)cc2c1nc(-c1ccc(S(C)(=O)=O)cc1)n2C [Example 52, 6-(1′-isobutyl-[1,4′-bipiperidin]-4-yl)-1,4-dimethyl-2-(4-(methylsulfonyl)phenyl)-1H-benzo[d]imidazole] | 130 | 129 | 4800 | > 50000
Cc1cc(C2CCN(C3CCN(C4CC4)CC3)CC2)cc2c1nc(-c1ccc(S(C)(=O)=O)cc1)n2C [Example 53, 6-(1′-cyclopropyl-[1,4′-bipiperidin]-4-yl)-1,4-dimethyl-2-(4-(methylsulfonyl)phenyl)-1H-benzo[d]imidazole] | 420 | 421 | 24000 | > 50000
COc1ccc(-c2nc3c(C)cc(C4CCN(C5CCN(CC(C)C)CC5)CC4)cc3n2C)cc1F [Example 54, 2-(3-fluoro-4-methoxyphenyl)-6-(1′-isobutyl-[1,4′-bipiperidin]-4-yl)-1,4-dimethyl-1H-benzo[d]imidazole] | 130 | 131 | 7700 | > 50000

These reach a lower IC50 (human TLR9; [1]). Values come first.

IC50 (human TLR9; [1]) [nM] | IC50 (human TLR9; read-out: TLR 9 IC50) [nM] | IC50 (human TLR7) [nM] | IC50 (human TLR8) [nM] | SMILES
9.8 | 9.8 | 650 | 31000 | COc1ccc(-c2nc3c(C)cc(C4CCN(C5CCN(CC(C)C)CC5)CC4)cc3[nH]2)cc1OC [Example 43, 2-(3,4-dimethoxyphenyl)-6-(1′-isobutyl-[1,4′-bipiperidin]-4-yl)-4-methyl-1H-benzo[d]imidazole tris(2,2,2-trifluoroacetate)]
52 | 52 | 9100 | 5500 | COc1ccc(-c2nc3c(C)cc(C4CCN(C5CCN(C6CC6)CC5)CC4)cc3[nH]2)cc1OC [Example 44, 6-(1′-cyclopropyl-[1,4′-bipiperidin]-4-yl)-2-(3,4-dimethoxyphenyl)-4-methyl-1H-benzo[d]imidazole]
20 | 20 | 11000 | > 50000 | COc1ccc(-c2nc3c(C)cc(C4CCN(C5CCN(C(C)C)CC5)CC4)cc3n2C)cc1OC [Example 45, 2-(3,4-dimethoxyphenyl)-6-(1′-isopropyl-[1,4′-bipiperidin]-4-yl)-1,4-dimethyl-1H-benzo[d]imidazole]
13 | 13 | 7200 | > 50000 | COc1ccc(-c2nc3c(C)cc(C4CCN(C5CC6(C5)CN(CC(C)C)C6)CC4)cc3n2C)cc1OC [Example 47, 2-(3,4-dimethoxyphenyl)-6-(1-(2-isobutyl-2-azaspiro[3.3]heptan-6-yl)piperidin-4-yl)-1,4-dimethyl-1H-benzo[d]imidazole tris(2,2,2-trifluoroacetate)]
19 | 19 | > 50000 | > 50000 | COc1ccc(-c2nc3c(C)cc(C4CCN(C5CC6(C5)CN(CC5CC5)C6)CC4)cc3n2C)cc1OC [Example 48, 6-(1-(2-(cyclopropylmethyl)-2-azaspiro[3.3]heptan-6-yl)piperidin-4-yl)-2-(3,4-dimethoxyphenyl)-1,4-dimethyl-1H-benzo[d]imidazole]
23 | 23 | 2900 | > 50000 | COc1ccc(-c2nc3c(C)cc(C4CC5CCC(C4)N5C4CCN(CC(C)C)CC4)cc3n2C)cc1OC (stereo not drawn) [Example 50, 2-(3,4-dimethoxyphenyl)-6-(8-(1-isobutylpiperidin-4-yl)-8-azabicyclo[3.2.1]octan-3-yl)-1,4-dimethyl-1H-benzo[d]imidazole]
